In PubChem BioAssay AID2305 (GlaxoSmithKline (GSK), 2010):

The molecules below were run on P. falciparum 3D7 growth, pLDH absorbance (assay: P. falciparum 3D7 growth inhibition, dose response, strain 3D7 (AID 2305)).

SMILES	IC50 [µM]
c1ccc2c(NCCOCCNc3c4ccccc4nc4ccccc34)c3ccccc3nc2c1	0.88
OCCOCCNCc1cccc(C#Cc2cc3ncnc(Nc4ccc(OCc5cccc(F)c5)c(Cl)c4)c3s2)n1	0.78
CC(C)(C)c1cc(CN2CCN(Cc3ccccc3)CC2)cc(C(C)(C)C)c1O	0.77
Nc1ncc(-c2ccc(F)cc2)cc1-c1nc2ccc(Cl)cc2[nH]1	0.75
Cc1cc(N2CCCN(C)CC2)nc(Nc2ccc(Br)cc2)n1	0.72
CN(C)CCCOc1ccc(CNCC(C)(C)c2nc(-c3ccc(Cl)c(O)c3)c(-c3ccncc3)[nH]2)cc1	0.71
CC1(C)N=C(N)N=C(N)C1c1ccc(Cl)c(Cl)c1 (stereo not given)	0.03
COc1ccc(Nc2ncc3c(-c4cccc(NC(=O)CC(C)C)c4)c[nH]c3n2)cc1OC	0.83
CN(C)CCNc1ncnc2c1[nH]c1ccc(Br)cc12	0.74
COC(=O)C1=C(C)NC2=C(C(=O)CC(c3ccc(OC)c(OC)c3)C2)C1c1cccc(O)c1 (stereo not given)	0.73
Cc1[nH]c(CNCCCNc2cc(=O)c3ccccc3[nH]2)c(Br)c1Br	1.04
Nc1ncnc2c1ncn2C(CO)Cc1ccc(O)cc1 (stereo not given)	1.03
Cc1cc(-c2cccc(CNCc3ccccc3)c2)ccc1S(=O)(=O)NCCN1CCCC1	0.73
CC(C)(C)c1ccc(Cc2cccc3nc(N)nc(N)c23)cc1	0.83
COc1cc(NCCCCNc2ccc(Cl)c(Cl)c2)nc2ccccc12	0.53
CC(=O)Nc1ccc(OCCN(CC(C)C)c2ccc(C(F)(F)F)c(C#N)c2)c(Cl)c1	0.31
CN(c1ccc2c(c1)nc(Nc1ccc(Cl)cc1)n2C)c1ccnc(Nc2ccc(CS(C)(=O)=O)cc2)n1	0.76
O=C(Nc1ccc(SC(F)(F)F)cc1)Nc1ccc(Cl)c(Cl)c1	0.91
O=C(NCCCCN1CCN(c2cccc3c2CCCC3)CC1)c1ccc(NC(=O)c2ccc(Cl)cc2)cc1	0.45
Cc1cc(C(=O)NC2CCN(Cc3ccccc3)CC2)ccc1-c1nc2cc(Cl)c(Cl)cc2[nH]1	0.96
CNC(=O)c1cnc(Nc2ccc(N3CCN(C)CC3)c(C)c2)nc1NC	0.87
CC(C)c1cc2c(ccc3nc(N)nc(N)c32)[nH]1	0.04
CN(CCC1CCN(C(=O)/C=C/c2ccc(Cl)c(Cl)c2)CC1)C1CCC(c2c[nH]c3ccccc23)CC1 (stereo not given)	0.77
CCc1cc(-c2onc(C(F)(F)F)c2-c2ccccc2)c(O)cc1OC	0.79
COc1cc(CN=C(Nc2ccc(-c3ccccc3)cc2)Nc2ccc(C#N)cc2O)cc(OC)c1	0.72

SMILES	IC50 [µM]
COc1cc(C(=O)NC2CCN(Cc3ccccc3)CC2)ccc1-c1cc2cc(Cl)c(Cl)cc2[nH]1	0.23
COc1ccc([N+](=O)[O-])cc1N(Cc1ccccc1-c1ccccc1)S(=O)(=O)c1ccc(C(F)(F)F)cc1[N+](=O)[O-]	1.05
COc1ccccc1-c1cccc(CNC2CCN(CC3Cn4c(=O)ccc5ccc(F)c3c54)CC2)c1 (stereo not given)	1.38
Cc1cc(N[C@@H](Cc2ccccc2)C(=O)NCCOc2ccccc2)nc(NCC2CCCCC2)n1	0.85
FC(F)(F)c1ccc2nc(-c3cccc(-c4cccc(CNCc5cnn(-c6ccccc6)n5)c4)c3)[nH]c2c1	0.55
CC(C)c1ccc(-c2noc(SCC(=O)N(C)c3ccc(F)cc3)n2)cc1	1.17
Oc1ccc(CN2CCC(NCc3cccc4ccccc34)CC2)cc1	1.2
CCN(c1ccc(F)cc1)S(=O)(=O)c1cc(Br)cc2c1N(C(=O)C1CC1)CC2	0.94
S=C(NCCN1CCOCC1)Nc1ccccc1	1.02
CNCCNCc1cccc(-c2ccc(-c3nc4ccc(C(F)(F)F)cc4[nH]3)cc2)c1	0.69
CS(=O)(=O)CCNCc1nc(-c2ccc3c(=O)[nH]cnc3c2)cs1	1.01
CC(C)NCc1cccc(-c2ccc(NC(=O)c3ccc(C#N)cc3)cc2)c1	0.83
CN1CCCC(COc2cc3c(cc2Br)CCN3C(=O)Nc2ccc(-c3ccncc3)c(Cl)c2)C1 (stereo not given)	0.23
CNC(=O)c1cnc(Nc2ccc(OCC(O)CN(C)C)cc2)nc1Nc1cccc(OC(C)C)c1 (stereo not given)	0.14
CCCC(C)Nc1nc(C)cc(N[C@@H](CC(C)C)C(=O)NC2CCCC2)n1 (stereo not given in full)	1.08
O=C(N[C@@H](Cc1ccccc1)[C@H](O)CNC1CCCc2ccccc21)c1cc(C2CCCC2)cc(N2CCCC2=O)c1 (stereo not given in full)	0.16
Cc1c(Br)cc2[nH]c(-c3ccc(C(=O)NC4CCN(Cc5ccccc5)CC4)cc3)nc2c1C	0.33
O=C(c1cc(C(=O)NCc2ccc(Cl)cc2)c(=O)n(Cc2ccc(Cl)cc2)c1)c1cc(F)ccc1O	0.95
CCCCNC(=O)[C@H](CC1CCCCC1)NC(=O)c1ccc(O)c(-c2ccc(OC)cc2)c1	0.92
O=c1cc(NCCCNCc2cccc(OC(F)(F)C(F)F)c2)[nH]c2ccccc12	1.27
COc1ccc2nccc([C@@H](O)CN3CCC(NC(=O)C(=O)c4c[nH]c5c(C)cccc45)CC3)c2c1	0.31
Cc1cc(NN=Cc2ccccc2)c2cc(C(F)(F)F)ccc2n1	0.15
FC(F)(F)c1ccc2nc(-c3ccc(-c4cccc(CNCc5ccccc5)c4)s3)[nH]c2c1	0.15
COc1ccc(NCCCNc2ccnc3ccccc23)cc1	0.97
O=C(/C=C/c1ccc(F)cc1)NC1CCC(CCN2CCc3ccc(-n4cccn4)cc3CC2)CC1 (stereo not given)	1.44

SMILES	IC50 [µM]
CCCN1CCN(c2cc(S(=O)(=O)Nc3ccc(C(=O)NCc4cccc(C(F)(F)F)c4)cc3)ccc2OC)CC1	1.01
CCOc1cc(Cl)c(C(C)NC(=O)c2cccc(OC)c2)cc1OCC (stereo not given)	0.96
COC(=O)c1ccc(CC(C)NCC(O)c2ccc(F)c(Cl)c2)cc1 (stereo not given)	0.86
Fc1c(CNCC2CCN(CC3CCCCC3)CC2)cccc1C(F)(F)F	0.9
Cc1[nH]c(C)c(-c2cccc(Oc3ccc(Cl)cc3)c2)c(=O)c1Br	0.07
Nc1nc(N)c2c(ccc3nn(Cc4cccnc4)cc32)n1	0.36
COc1ccc(C(=O)Nc2ccc(-c3ccc([N+](=O)[O-])cc3)cc2)cc1CCCN(C)C	0.8
O=C(NCc1ccc(Cl)c(Cl)c1)c1ccc(C2CCN(Cc3ccc4nc[nH]c4c3)CC2)cc1	0.96
COc1ccc2nccc([C@@H](O)CN3CCC(NC(=O)C(c4cc5ccccc5o4)N4CCN(c5ccccc5OC)CC4)CC3)c2c1 (stereo not given in full)	0.31
O=C1CC(C(=O)O)CC(=O)N1	0.76
NC(=O)C1CCN(Cc2ccc(-c3cccc(-c4nc5ccc(F)cc5[nH]4)c3)cc2)CC1	0.88
CCC(C)C#Cc1c(C)nc(N)nc1N (stereo not given)	0.26
O=C(Cc1cccc(Cl)c1)Nc1ccc(N2CCC(NCc3ccc4ncccc4c3)CC2)cc1	1.23
CC(C)N1CCN(C(=O)c2ccc(CNCCCN3CCN(c4ccccc4C(F)(F)F)CC3)s2)CC1	0.84
CN(CC(=O)Nc1ccc(F)cc1)C(=O)c1ccc(-c2ccc(F)cc2)o1	0.93
Nc1ccc(-c2nc3cc(C4=N[C@H]5CCCC[C@H]5N4)ccc3o2)cc1[N+](=O)[O-]	1.12
O=[N+]([O-])c1ccc2nccnc2c1	1.07
Cc1ccc(-c2ccc3c(c2)C=C(C(=O)NC2CCN(CCNC(=O)c4cccs4)CC2)CCC3)cc1	0.23
COc1ccc(-c2cccc(NC(=O)c3ccc(C#N)cc3)c2)cc1CN1CCN(C)CC1	0.99
CCC(C)NC(=O)Cn1c2ncccc2c(=O)n1-c1ccc(C)cc1 (stereo not given)	1.26
NC(N)=Nc1ccc(Cc2ccc(N=C(N)N)cc2)cc1	0.26
CC(C)CNCc1cccc(-c2ccc(CNc3ccc(C(=O)c4ccccc4)cc3)cc2)c1	0.76
CC(C)c1ccc(Nc2nc(NCCc3cnc[nH]3)nc(NCc3ccccc3)n2)cc1	0.69
CCCc1cc(Cc2cnc(N)nc2N)cc(CCC)c1OCCCCCC(=O)OCC	0.05
COc1ccc(Nc2nc(NN=Cc3cc(Br)ccc3O)nc(Nc3ccc([N+](=O)[O-])cc3)n2)cc1	0.22

SMILES	IC50 [µM]
Cc1cc(Nc2ccc(C)c(C)c2)n2nc(C)nc2n1	0.6
Cc1noc(-c2ccccc2)c1NC(=O)NC1CCN(CCCCCNC(=O)/C=C/c2ccc(Cl)c(Cl)c2)CC1	0.99
CCOC(=O)c1ccc(NC(=O)N[C@@H](Cc2ccccc2)C(=O)NC2CCN(Cc3ccc(O)c(OC)c3)C2)cc1 (stereo not given in full)	0.99
CCn1cnc2c(N3CCCCS3(=O)=O)cc(C(=O)N[C@@H](Cc3ccccc3)[C@H](O)CNC3CCOCC3)cc21	0.71
Cc1cc(C(F)(F)F)nn1-c1ccc(NC(=O)c2ccco2)cc1	0.73
Cc1ccc2c(C3=CCN(CCCCC4(C)C(=O)Nc5ccccc54)CC3)c(C)[nH]c2c1 (stereo not given)	0.37
CCOC(=O)NC1=NC(C)(C)N(OCc2cccc3c2ccc2ccccc23)C(NC(=O)OCC)=N1	0.17
COc1ccc(N(C)Cc2cnc3nc(N)nc(N)c3n2)cc1	0.28
N#Cc1ccc(-c2ccc(C(=O)NCCCCN3CCC(c4cc(Br)c5c(c4O)CCCC5)CC3)cc2)cc1	0.15
O=C(Cc1ccc(-n2cnnn2)cc1)N(Cc1cncn1Cc1cccc(C(F)(F)F)c1)CC1CC1	0.96
CCC(C)NS(=O)(=O)c1ccc2nc(Nc3ccc(C)cc3)n(C3CCCCC3C)c2c1 (stereo not given)	0.59
CCCCCCSc1nnc(COc2cccc3ccccc23)n1-c1ccc(OC)cc1	0.05
O=C(/C=C/c1ccc(Cl)c(Cl)c1)NCCCCCN1CCC(NC(=O)c2ccc(F)c(F)c2)CC1	0.79
O=C(/C=C/c1ccc(Cl)c(Cl)c1)NCCCCCN1CCN(C(=O)Nc2cccc(F)c2)CC1	0.87
CC(C)(C)N1CCC(N(Cc2ccc(-c3ccc(C(F)(F)F)cc3)cc2)C(=O)Cn2c(CCc3cccc(F)c3F)cc(=O)c3ccccc32)CC1	0.79
CCC(O)(C#Cc1c(C)nc(N)nc1N)CC	0.64
O=C(Cc1cnc[nH]1)Nc1cccc(-c2ccc(-c3nc4ccc(F)cc4[nH]3)s2)c1	0.66
Cc1cc2c(/C=C/C(=O)NC3CCC(CCN4CCc5ccc(C#N)cc5CC4)CC3)cccc2[nH]1 (stereo not given)	0.84
COc1ccc(OCCCN2CCCCC2)cc1S(=O)(=O)c1ccc(OCc2ccc(C(F)(F)F)cc2)cc1	1.01
CC(C)(C)OC(=O)c1c(NC(=O)/C=C/c2ccc(O)c(O)c2)sc2c1CCCC2	0.82
O=C1C(c2ccccc2)=C(Nc2cc(Cl)cc(Cl)c2)c2ccccc21	0.37
COc1ccc(OC)c2c1C[C@@H]1NC[C@H]2c2c(OC)ccc(OC)c21	0.97
COc1ccc(CN(C)CCCSc2ccc(NC(=O)c3cccc4c(=O)cc(-c5ccccc5)[nH]c34)cc2)cc1OC	0.92
CC1(CCCCN2CCC(Cc3ccccc3)CC2)C(=O)Nc2ccccc21 (stereo not given)	0.86
COc1ccc2ccccc2c1C=NNc1ccnc2ccc(F)cc12	1.11
